From US20080090770A1, “Modulation of Muc1 Mediated Signal Transduction” (priority 2003, published 2008)

Columns and labels:
PDZ domains [1] = assay: Modified ELISA: profile (matrix) screen of biotinylated peptide against individual GST-PDZ domain fusion proteins; format: binding, human
From the text: Profile Results Peptides corresponding to the C-terminus were able to bind a number of PDZ domains in a concentration dependent manner. […] Identities of the interacting PDZ domains are listed directly above or next to the bar representing the absorbance in the assay.
The results, shown in FIGS. 11, 12 and 13, represent the absorbance and standard deviation of interactions of higher relative strength. The data in FIG. 13 for PDZK1, PTPL1 d5, MUPP1 d4 and INADL d1 have high standard deviations and thus require further verification to validate intensity of binding.

[2] = target: T1, biotinylated TAT-MUC1 binding to ZO1 d2 (Homo sapiens, UniProt Q07157); assay: Modified ELISA: competition with binding of biotinylated TAT-MUC1 peptide (SEQ ID NO: 134) to PDZ domain
T1 construct: made in house; host or cells: E. coli
T1 sequence (Q07157 186-264 limits assumed): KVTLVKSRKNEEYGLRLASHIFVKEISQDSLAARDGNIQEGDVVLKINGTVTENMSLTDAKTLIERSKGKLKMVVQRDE

[3] = target: T2, biotinylated TAT-MUC1 binding to RIM2 (Homo sapiens, UniProt Q9UQ26); assay: as above; conditions: FIG. 10, among three peptides
T2 construct: RIM2, PDZ domain 1: GI#: 12734165; made in house; host or cells: E. coli
T2 sequence (Q9UQ26 668-754 limits assumed): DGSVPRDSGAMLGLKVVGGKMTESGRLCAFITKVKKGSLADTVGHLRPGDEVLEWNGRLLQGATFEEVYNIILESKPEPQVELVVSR

PDZ domains [4] = assay: Self-competition experiments in modified ELISA; format: binding, human; conditions: of the three peptides tested
[5] = target: T3, KIAA0751 (RIM2) PDZ domain 1 (Homo sapiens, UniProt Q9UQ26); assay: Modified ELISA: titration of biotinylated peptide against GST-PDZ domain fusion protein; format: binding
T3 construct: RIM2, PDZ domain 1: GI#: 12734165; made in house; host or cells: E. coli
T3 sequence (Q9UQ26 668-754 limits assumed): T2 sequence (Q9UQ26 668-754 limits assumed)
Experimental: Coat plate with 100 μl of 5 μg/ml anti-GST, O/N at 4° C.;
Dump contents of plate & out tap dry on paper towels;
Block with 200 μl Assay Buffer for 2 hrs at room temperature;
Prepare proteins in Assay Buffer;
Add proteins at 50 μl per well, incubate 1 to 2 hrs at 4° C.;
Prepare peptides in Assay Buffer;
Add peptides at 50 μl per well on ice (write time on plate);
Incubate on ice after last peptide has been added for exactly 10 minutes;
Place at room temp for exactly 20 minutes;
Prepare HRP-Streptavidin within 10 minutes of time of use;
Promptly wash 3× with cold PBS;
Add 100 μl per well of HRP-Streptavidin (write time on plate);
Incubate at 4° C. for exactly 20 minutes;
Turn on plate reader and prepare files;
Promptly wash 5× with PBS at room temperature;
Add 100 μl/well TMB substrate (write time on plate);
Incubate in dark at room temp for a maximum of 30 minutes;
Read plate at 25 minutes (650 nm);
Stop reaction with 100 μl of 0.18M H2SO4, 30 min. after adding TMB;
Take last reading at 450 nm soon after stopping reaction;
Titrations to determine relative EC50 values: Peptide corresponding to MUC1 was then titrated against a constant amount of the PDZ domain-containing recombinant proteins identified in the first part of this example.
Using the modified ELISA described supra in Example 6, the effect of two variant carboxy-terminal MUC1 peptides were examined. Two MUC1 isoforms with an A/T substitutions at the fifth amino acid residue from the carboxy-terminal end have been reported in the literature, e.g., carboxy-terminal AAASANL disclosed in GenBank P15941 [gi:547937] and carboxy-terminal AATSANL disclosed in GenBank A35175 [gi:11385307]. Peptides were prepared consisting of the TAT sequence SEQ ID NO: 102 and the terminal nine amino acid residues of the relevant MUC1 sequence, i.e., […]
Using the modified ELISA described supra in Example 7, the binding to the RIM2 PDZ domain of the biotinylated peptide sequences listed in Table 8 were examined. […] Relative EC50 values were calculated from a curve fit of the data for each interaction.

## NGGSSLSYTNPAVAATSANL [MUC1 peptide]
PDZ domains [1]; MUC1 peptide concentration 0.01 μm, FIG. 3
  Interactions with higher absorbance readings in PDZ profile: seven interactions are observed to give higher absorbance readings
PDZ domains [1]; MUC1 peptide concentration 0.1 μm, FIG. 4
  Interactions with higher absorbance readings in PDZ profile: more interactions are observed

## YGRKKRRQRRRARGDRKRIV [SEQ ID NO: 136]
[2]
  Competition for binding of biotinylated SEQ ID NO: 134 (TAT-MUC1): can also compete for binding
[3]
  Competitive inhibition of biotinylated SEQ ID NO: 134 (TAT-MUC1) binding: best competitive inhibitor

## YGRKKRRQRRRQDEEEGIWA [SEQ ID NO: 137]
[2]
  Competition for binding of biotinylated SEQ ID NO: 134 (TAT-MUC1): only a relatively weak competitor
PDZ domains [4]
  Behaviour in self-competition experiments: acts the most like a traditional competitive inhibitor
[5]
  EC50 for binding to RIM2, compared with SEQ ID NO: 136: lower EC50
  Selectivity of binding, RIM2 versus ZO 1 d2: binds RIM2 more strongly than ZO 1 d2
[5]; comparison of SEQ ID NO: 136, 137, 138
  Tightness of binding to RIM2 among the three peptides: binds most tightly
